In patent US10710984B2, “N-[(Pyrimidinylamino)propanyl]-and N-[(Pyridinylamino)-propanyl]arylcarboxamides” (Boehringer Ingelheim International GmbH, priority 2016, dated 2020):

Experiments:
[1] = target: T1, human Orexin 1 receptor (Homo sapiens, UniProt O43613); experiment: Assay A: in vitro testing of OX1R potency, OX1R IP1; type: cell-based; conditions: for Kb: Table 4a, 50 nM Orexin A
T1 construct: CHO-K1 cells stably expressing the full-length human Orexin 1 receptor and the aequorin photoprotein; expressed in transfected cells; host or cells: CHO-K1 (CHO-K1/hOx1)
T1 sequence (O43613 1-425): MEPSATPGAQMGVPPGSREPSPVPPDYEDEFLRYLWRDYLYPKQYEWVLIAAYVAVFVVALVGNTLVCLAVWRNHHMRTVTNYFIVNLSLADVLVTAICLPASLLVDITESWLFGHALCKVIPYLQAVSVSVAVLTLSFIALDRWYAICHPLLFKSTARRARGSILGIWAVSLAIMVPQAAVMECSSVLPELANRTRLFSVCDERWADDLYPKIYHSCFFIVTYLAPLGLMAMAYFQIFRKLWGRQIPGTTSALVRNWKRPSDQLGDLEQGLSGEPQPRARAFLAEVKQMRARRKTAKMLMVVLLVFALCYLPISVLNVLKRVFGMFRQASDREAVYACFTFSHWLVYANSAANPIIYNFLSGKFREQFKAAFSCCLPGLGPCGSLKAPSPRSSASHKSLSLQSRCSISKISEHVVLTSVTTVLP

[2] = Assay D: assessment of log P; type: physicochemical
Protocol: The assay was performed following the description by S. F. Donovan and M. C. Pescatore in J. Chromatogr. A 952 (2002) 47-61.

[3] = target: T2, human orexin 2 receptor (Homo sapiens, UniProt O43614); experiment: Assay B: in vitro testing of OX2R potency, OX2R IP1; type: cell-based; conditions: Table 4a; 0.5 nM Orexin A
T2 construct: CHO-K1 cells stably expressing the full-length human orexin 2 receptor and the aequorin photoprotein; expressed in transfected cells; host or cells: CHO-K1 (CHO-K1/hOx2)
T2 sequence (O43614 1-444): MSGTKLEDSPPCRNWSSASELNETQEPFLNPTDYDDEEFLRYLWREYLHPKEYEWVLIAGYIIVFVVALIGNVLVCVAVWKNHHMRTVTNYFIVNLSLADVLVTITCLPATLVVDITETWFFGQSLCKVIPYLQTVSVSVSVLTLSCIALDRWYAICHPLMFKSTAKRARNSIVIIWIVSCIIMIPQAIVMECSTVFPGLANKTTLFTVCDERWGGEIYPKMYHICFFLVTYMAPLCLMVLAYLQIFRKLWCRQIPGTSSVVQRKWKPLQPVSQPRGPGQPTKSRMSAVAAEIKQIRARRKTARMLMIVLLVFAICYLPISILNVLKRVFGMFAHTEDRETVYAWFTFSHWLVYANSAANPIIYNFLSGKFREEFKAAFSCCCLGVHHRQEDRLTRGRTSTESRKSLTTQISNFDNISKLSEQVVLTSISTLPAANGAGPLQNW
Text: Activation of the orexin receptors expressed in cell lines results in an increase in intracellular IP3 concentration. IP1, a downstream metabolite of IP3, accumulates in cells following receptor activation and is stable in the presence of LiCl. Using Homogeneous Time-Resolved Fluorescence technology with Lumi4-Tb cryptate (commercially available from Cisbio Bioassay) and a suitable fluorescence plate reader. […] Chem. Genomics 2009, 3, 22-32. This technique is used to characterize pharmacological modification of the orexin receptors.
B. In Vitro Testing of OX2R Potency: OX2R IP1
IP1 measurements are performed in CHO-K1 cells stably expressing the full-length human orexin 2 receptor and the aequorin photoprotein. Cells are cultivated in Ham's nutrient mixture F12 medium with 10% fetal calf serum, in a 37° C., 95% humidity and 5% CO2 incubator. The CHO-K1/hOx2 cell mass is expanded to larger cell numbers. The cells are obtained as frozen cells in cryo-vials and stored until use at −150° C. The viability of the cells after thawing is >90%. In preparation for the assay, 24 hours before the assay, the cells are thawed at 37° C. and immediately diluted with cell culture medium. After centrifugation, the cell pellet is re-suspended in medium and then distributed into the assay plates with a density of 5000 cells/25 μL per well. The plates are incubated for one hour at room temperature to reduce edge effects before they are incubated for 24 hours at 37° C./5% CO2. Compounds are prepared by a 8-point serial dilution in DMSO and a final dilution step into assay buffer (HBSS with 20 mM HEPES, 0.1% BSA and 50 mM LiCl, pH 7.4) to ensure a final DMSO concentration of 1% in the assay. On the day of the assay, cells in the plate are washed twice with 60 μL assay buffer (20 μL buffer remained in the wells after washing), followed by adding 5 μL per well of compounds diluted in assay buffer. After 15 minutes of incubation at room temperature 5 μL per well of Orexin A peptide (final concentration: 0.5 nM) dissolved in assay buffer is added to the assay plate. The assay plate is incubated for 60 minutes at 37° C. Then 5 μL per well of Anti-IP1-Cryptate Tb solution and 5 μL per well of IP1-d2 dilution are added to all well of the plate and the plate is incubated for a further 60 minutes light protected at room temperature. The emission at 615 nm and 665 nm (Excitation wavelength: 320 nm) are measured using an EnVision reader (PerkinElmer). The ratio between the emission at 665 nm and 615 is calculated by the reader.
8-point four parametric non-linear curve fitting and determination of IC50 values and Hill slopes is performed using a regular analysis software e.g. AssayExplorer (Accelrys). In order to establish an agonist concentration independent parameter, Kb values are calculated using the following equation: IC50/((2+(A/EC50)^n)^1/n−1) (with A=concentration agonist, EC50=EC50 agonist, n=Hill slope agonist) (see P. Leff, I. G. Dougall, Trends Pharmacol. Sci. 1993, 14(4), 110-112).
Kb values from Assay A (OX1R) and Assay B (OX2R) can then provide a selectivity ratio which is independent of the agonist (Orexin A) concentration.

[4] = target: T3, human MDR1 P-gp (Homo sapiens, UniProt P08183); experiment: Assay C: efflux in MDCK cells transfected with the human MDR1 gene; type: in vitro ADME; conditions: MDCK-MDR1 cell monolayers, pH 7.4, 37° C., read-out: MDCK efflux ratio (BA/AB)
T3 construct: expressed in transfected cells; host or cells: MDCK (MDCK-MDR1)
T3 sequence (P08183 whole entry): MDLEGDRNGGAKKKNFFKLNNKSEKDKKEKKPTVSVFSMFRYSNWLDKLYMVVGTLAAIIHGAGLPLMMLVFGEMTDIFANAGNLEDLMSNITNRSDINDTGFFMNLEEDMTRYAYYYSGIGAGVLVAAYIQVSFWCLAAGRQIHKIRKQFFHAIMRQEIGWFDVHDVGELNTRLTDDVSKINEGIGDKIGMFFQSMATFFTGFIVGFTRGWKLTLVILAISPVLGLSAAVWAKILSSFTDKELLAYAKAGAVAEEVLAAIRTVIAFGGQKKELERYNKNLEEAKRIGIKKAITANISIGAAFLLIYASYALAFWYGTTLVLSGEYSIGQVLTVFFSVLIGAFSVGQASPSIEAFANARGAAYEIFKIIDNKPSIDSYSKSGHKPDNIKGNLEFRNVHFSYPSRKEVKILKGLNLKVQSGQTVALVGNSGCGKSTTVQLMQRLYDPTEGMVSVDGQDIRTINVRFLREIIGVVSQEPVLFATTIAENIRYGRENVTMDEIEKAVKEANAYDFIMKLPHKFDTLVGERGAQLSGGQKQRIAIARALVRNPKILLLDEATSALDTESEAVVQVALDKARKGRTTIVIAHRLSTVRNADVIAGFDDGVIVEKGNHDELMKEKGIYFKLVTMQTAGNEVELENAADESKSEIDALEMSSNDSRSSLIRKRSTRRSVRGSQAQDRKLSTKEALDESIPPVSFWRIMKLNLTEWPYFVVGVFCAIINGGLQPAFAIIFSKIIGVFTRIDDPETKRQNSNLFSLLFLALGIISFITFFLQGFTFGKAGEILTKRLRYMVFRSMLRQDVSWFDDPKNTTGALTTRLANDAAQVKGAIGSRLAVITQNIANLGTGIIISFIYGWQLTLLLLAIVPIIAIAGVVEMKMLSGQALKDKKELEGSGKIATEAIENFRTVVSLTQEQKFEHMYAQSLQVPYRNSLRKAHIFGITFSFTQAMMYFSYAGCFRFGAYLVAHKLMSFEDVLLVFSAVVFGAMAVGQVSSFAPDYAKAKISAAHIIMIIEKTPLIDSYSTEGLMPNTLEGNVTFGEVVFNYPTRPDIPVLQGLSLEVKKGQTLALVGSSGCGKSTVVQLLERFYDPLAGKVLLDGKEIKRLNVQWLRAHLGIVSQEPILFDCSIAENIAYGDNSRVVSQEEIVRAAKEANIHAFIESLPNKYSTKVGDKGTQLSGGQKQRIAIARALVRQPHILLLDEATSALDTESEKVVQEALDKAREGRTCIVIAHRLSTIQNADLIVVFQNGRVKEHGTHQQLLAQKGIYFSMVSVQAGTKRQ
Protocol: C. Assessment of Efflux in Madin-Darby Canine Kidney (MDCK) Cells Transfected with the Human MDR1 Gene
Apparent permeability coefficients (PE) of the compounds across the MDCK-MDR1 cell monolayers are measured (pH 7.4, 37° C.) in apical-to-basal (AB) and basal-to-apical (BA) transport direction. AB permeability (PEAB) represents drug absorption from the blood into the brain and BA permeability (PEBA) drug efflux from the brain back into the blood via both passive permeability as well as active transport mechanisms mediated by efflux and uptake transporters that are expressed on the MDCK-MDR1 cells, predominantly by the overexpressed human MDR1 P-gp. The compounds are assigned to permeability/absorption classes by comparison of the AB permeabilities with the AB permeabilities of reference compounds with known in vitro permeability and oral absorption in the human. Identical or similar permeabilities in both transport directions indicate passive permeation, vectorial permeability points to additional active transport mechanisms. Higher PEBA than PEAB indicates the involvement of active efflux mediated by MDR1 P-gp. Active transport is concentration-dependently saturable.
MDCK-MDR1 cells (1-2×10e5 cells/1 cm2 area) are seeded on filter inserts (Costar transwell polycarbonate or PET filters, 0.4 μm pore size) and cultured (DMEM) for 7 days. Subsequently, the MDR1 expression is boosted by culturing the cells with 5 mM sodium butyrate in full medium for 2 days. Compounds are dissolved in appropriate solvent (like DMSO, 1-20 mM stock solutions). Stock solutions are diluted with HTP-4 buffer (128.13 mM NaCl, 5.36 mM KCl, 1 mM MgSO4, 1.8 mM CaCl2, 4.17 mM NaHCO3, 1.19 mM Na2HPO4×7H2O, 0.41 mM NaH2PO4—H2O, 15 mM HEPES, 20 mM glucose, 0.25% BSA, pH 7.4) to prepare the transport solutions (0.1-300 μM compound, final DMSO<=0.5%). The transport solution (TL) is applied to the apical or basolateral donor side for measuring A-B or B-A permeability (3 filter replicates), respectively. The receiver side contains the same buffer as the donor side. Samples are collected at the start and end of experiment from the donor and at various time intervals for up to 2 hours also from the receiver side for concentration measurement by H PLC-MS/MS or scintillation counting. Sampled receiver volumes are replaced with fresh receiver solution.

Structure (SMILES)	Kb [1] [nM]	chromatographic logP [2]	Kb [3] [nM]	efflux ratio [4]	OX2R Kb/OX1R Kb [1]
CC[C@@H](CNc1ncc(C(F)(F)F)cn1)N(C)C(=O)c1c(F)cccc1-n1nccn1 [Ex 91 in WO2016/ 034882, reference compound]	3.96				
CCN(C(=O)c1ccc(C)cc1-n1nccn1)[C@@H](C)CNc1ncc(C(F)(F)F)cn1 [Example 5]	0.012	2 to 4	21.1		
CC[C@@H](CNc1ncc(C(F)(F)F)cn1)N(C)C(=O)c1cc(Cl)ccc1-n1nccn1 [Ex 39 in WO2016/ 034882, reference compound]			81.5		
CCN(C(=O)c1ccc(OC)cc1-n1nccn1)[C@@H](C)CNc1ncc(C(F)(F)F)cn1 [Example 20]	0.091	2 to 4	115	< 3	
CCN(C(=O)c1cc(C)ccc1-n1nccn1)[C@@H](C)CNc1ccc(Cl)cn1 [Example 10]	0.014		5.57		
CCN(C(=O)c1cccc(F)c1-c1ncccn1)[C@@H](C)CNc1ccc(F)c(C(F)(F)F)n1 [Example 12]	0.019	2 to 4	4.15		
CCN(C(=O)c1cccc(F)c1-n1nccn1)[C@@H](C)CNc1ccc(F)c(C(F)(F)F)n1 [Example 18]	0.078	2 to 4	16.3		
CCN(C(=O)c1nc(C)sc1-c1ccccc1)[C@@H](C)CNc1ncc(C(F)(F)F)cn1 [Example 6]	0.013	2 to 4	7.03	< 3	
CCN(C(=O)c1ccc(C)c(C)c1-n1nccn1)[C@@H](C)CNc1ccc(Cl)cn1 [Example 14]	0.023		22.9	< 3	
CCN(C(=O)c1cc(C)ccc1-n1nccn1)[C@@H](C)CN(C)c1ncc(C(F)(F)F)cn1 [Example 3]	0.02	2 to 4	15.2	< 3	755
CC[C@@H](CNc1ccc(C(F)(F)F)cn1)N(C)C(=O)c1cc(Cl)ccc1-n1nccn1 [Ex 42 in WO2016/ 034882, reference compound]			36.2		
CCN(C(=O)c1cccc(F)c1-n1nccn1)[C@@H](C)CNc1ccc(C(F)(F)F)cn1 [Example 15]	0.0044	2 to 4	3.86	< 3	
CC[C@@H](CNc1ncc(C(F)(F)F)cn1)N(C)C(=O)c1nc(C)ccc1-c1ncccn1 [Ex 84 in WO2016/ 034882, reference compound]	2.33				
CCN(C(=O)c1cc(OC)ccc1-n1nccn1)[C@@H](C)CNc1ncc(C(F)(F)F)cn1 [Example 4]	0.02	2 to 4	14.4	< 3	
CCN(C(=O)c1cc(F)ccc1-c1ncccn1)[C@@H](C)CNc1ncc(C(F)(F)F)cc1F [Example 13]	0.012	2 to 4	5.16		
CCN(C(=O)c1nc(C)sc1-c1ccc(F)cc1)[C@@H](C)CNc1ncc(C(F)(F)F)cn1 [Example 8]	0.022	2 to 4	7.92	< 3	
CC[C@@H](CNc1ccc(Cl)cn1)N(C)C(=O)c1cc(C)ccc1-n1nccn1 [Ex 1 in WO2016/ 034882, reference compound]			43.2		
CC[C@@H](CNc1ccc(C(F)(F)F)cn1)N(CC)C(=O)c1nc(C)ccc1-n1nccn1 [Ex 71 in WO2016/ 034882, reference compound]	0.03		27.3		
CC[C@@H](CNc1ncc(C(F)(F)F)cn1)N(CC)C(=O)c1nc(C)ccc1-n1nccn1 [Ex 73 in WO2016/ 034882, reference compound]			148		
CCN(C(=O)c1cccc(F)c1-c1ncccn1)[C@@H](C)CNc1ccc(C(F)(F)F)cn1 [Example 11]	0.015	2 to 4	3.15		
CCN(C(=O)c1nccc(C(F)(F)F)c1-c1ccn(C)n1)[C@@H](C)COc1ccc(C(F)(F)F)cn1 [Example 19]	0.114	2 to 4	26.2	< 3	
CCN(C(=O)c1c(-n2nccn2)ccc(C)c1F)[C@@H](C)CNc1ncc(C(F)(F)F)cn1 [Example 1]	0.041	2 to 4	21.8		
CCN(C(=O)c1cccc(F)c1-n1nccn1)[C@@H](C)CNc1ccc(Cl)cn1 [Example 17]	0.043		11.4		
CCN(C(=O)c1cc(C)ccc1-n1nccn1)[C@@H](C)CN(C)c1ccc(Cl)cn1 [Example 9]	0.0053		4.79		909
